{"source": "patent US20060240463A1", "about": "“Markers associated with the therapeutic efficacy of glatiramer acetate” (Rappaport Family Institute for Research in the Medical …, priority 2005, published 2006)", "key": {"RR-MS": {"tested_on": "RR-MS", "conditions": "in vivo; cited from earlier work"}, "dendritic cells": {"tested_on": "dendritic cells", "conditions": "through modulation of dendritic cells; cited from earlier work"}, "RR-MS patients [1]": {"tested_on": "RR-MS patients", "assay": "European/Canadian MRI trial, GA-treated PGx cohort: response by SNP genotype (\"combined\" response definition)", "type": "in vivo, human", "source_text": "(§1) Two clinical trials, the European/Canadian trial and U.S. pivotal trial, were used to identify associations between GA responsiveness and SNPs in RR-MS patients. Caucasian patients, that had participated in one of two previously completed randomized, double blind, placebo-controlled, multi-centric clinical trials, were solicited to partake in the present study. In both clinical trials, patients were required to have a diagnosis of definite MS (Poser C M, et al. Ann Neurol., 13(3):227-31 (1983) and a relapsing-remitting course (Lublin F D and Reingold S C, Neurology 46(4):907-11 (1996). Ultimately, 73 and 101 DNA samples of Caucasian patients from the U.S. pivotal and European/Canadian MRI trials, respectively, were analyzed. GA dosage was consistent for both trials (i.e. daily 20-mg subcutaneous injection). Table I compares multiple variables between the general cohort study and the PGx cohort study for the European/Canadian trial and the U.S. pivotal trial.\n(§2) Subjects were selected from two previously completed randomized, double blind, placebo-controlled, multi-centric clinical trials. In both clinical trials, patients were required to have a diagnosis of definite MS (Poser C M, et al. New diagnostic criteria for multiple sclerosis: guidelines for research protocols. Ann Neurol., (1983);13(3):227-31) and a relapsing-remitting course (Lublin F D, Reingold S C. Defining the clinical course of multiple sclerosis: results of an international survey. National Multiple Sclerosis Society (USA) Advisory Committee on Clinical Trials of New Agents in Multiple Sclerosis. Neurology, (1996);46(4):907-11) 85 (33.9%) out of 251 patients from the U.S. pivotal trial (Johnson K P, et al. Copolymer 1 reduces relapse rate and improves disability in relapsing-remitting multiple sclerosis: results of a phase 111 multicenter, double-blind placebo-controlled trial. The Copolymer 1 Multiple Sclerosis Study Group. Neurology, (1995);45(7):1268-76; Johnson K P, et al. Extended use of glatiramer acetate (COPAXONE) is well tolerated and maintains its clinical effect on multiple sclerosis relapse rate and degree of disability. Copolymer 1 Multiple Sclerosis Study Group. Neurology, (1998);50(3):701-8), and 108 (45.2%) out of 239 patients from the European/Canadian MRI trial (Comi G, Filippi M, Wolinsky J S. European/Canadian multicenter, double-blind, randomized, placebo-controlled study of the effects of glatiramer acetate on magnetic resonance imaging—measured disease activity and burden in patients with relapsing multiple sclerosis. European/Canadian glatiramer acetate Study Group. Ann Neurol., (2001);49(3):290-7) (including patients from Holland, Italy, Belgium, UK, Canada) consented to participate in this study. The same dosage of GA (i.e. daily 20-mg subcutaneous injection) was used in both trials. Although in the original trials patients were equally assigned to either GA- or placebo-treatment, the ratios in the current PGx study were 37:36 and 4952, for the U.S. pivotal and the European/Canadian MRI trials, respectively. Table I indicates various variables between the General Cohort study and the PGx Cohort study for both the European/Canadian trial and the U.S. pivotal trial.\n(§3) The primary endpoint in the European/Canadian MRI trial was the accumulated number of TI-enhancing lesions during 9 months, and an additional inclusion criterion was used calling for the presence of at least one TI-enhancing lesion on MRI screening. The primary end-point for the U.S. pivotal trial was the annualized relapse-rate after two years of treatment.\n(§4) The procedure used stringent definitions for response to GA therapy. […] For validation purposes response was also treated as a continuous variable where number of new T1-enhancing lesions within the third trimester was analyzed as the […] variable. […]"}, "RR-MS patients [2]": {"tested_on": "RR-MS patients", "assay": "European/Canadian MRI trial, GA-treated PGx cohort: response by SNP genotype (\"T1 lesion-free\" response definition)", "type": "in vivo, human", "source_text": "as §1, §2, §3, §4"}, "[3]": {"tested_on": "MHC class II molecules on murine and human antigen-presenting cells", "conditions": "cited from earlier work"}, "[4]": {"tested_on": "murine models resembling inflammatory bowel disease", "conditions": "severe ulceration and inflammation; cited from earlier work"}, "[5]": {"tested_on": "skin graft, thyroid grafts", "conditions": "across minor and major histocompatibility barriers; cited from earlier work"}, "[6]": {"conditions": "CD80_rs527004, GEN = 0, GA(N = 41)"}, "[7]": {"conditions": "CD80_rs527004, GEN = 1, GA(N = 41)"}, "[8]": {"conditions": "CD86_rs1129055, GEN = 0, GA(N-35)"}, "[9]": {"conditions": "CD86_rs1129055, GEN = 1, GA(N-35)"}, "[10]": {"conditions": "CD86_rs1129055, GEN = 2, GA(N-35)"}, "[11]": {"conditions": "CD86_rs2001791, GEN = 0, GA(N = 48)"}, "[12]": {"conditions": "CD86_rs2001791, GEN = 1, GA(N = 48)"}, "[13]": {"conditions": "CD86_rs2001791, GEN = 2, GA(N = 48)"}, "[14]": {"conditions": "CD95_rs9827641, GEN = 0, GA(N-47)"}, "[15]": {"conditions": "CD95_rs9827641, GEN = 1, GA(N-47)"}, "[16]": {"conditions": "CTSS_rs1415148, GEN = 0, GA(N = 47)"}, "[17]": {"conditions": "CTSS_rs1415148, GEN = 1, GA(N = 47)"}, "[18]": {"conditions": "CTSS_rs1415148, GEN = 2, GA(N = 47)"}, "[19]": {"conditions": "CTSS_rs2275235, GEN = 0, GA(N = 43)"}, "[20]": {"conditions": "CTSS_rs2275235, GEN = 1, GA(N = 43)"}, "[21]": {"conditions": "CTSS_rs2275235, GEN = 2, GA(N = 43)"}, "[22]": {"conditions": "MBP_rs470929, GEN = 0, GA(N-32)"}, "[23]": {"conditions": "MBP_rs470929, GEN = 1, GA(N-32)"}, "[24]": {"conditions": "MBP_rs470929, GEN = 2, GA(N-32)"}, "[25]": {"conditions": "TCRB_rs71878, GEN = 0, GA(N = 43)"}, "[26]": {"conditions": "TCRB_rs71878, GEN = 1, GA(N = 43)"}, "[27]": {"conditions": "TCRB_rs71878, GEN = 2, GA(N = 43)"}}}
{"substance": "glatiramer acetate [GA]", "values": [{"measurement": "relapse rate and CNS activity", "setting": "RR-MS", "value": "effectiveness in reducing relapse rate and CNS activity"}, {"measurement": "Th2 cell development and IL-10 production", "setting": "dendritic cells", "value": "promotes T helper 2 (Th2) cell development and increased IL-10 production"}, {"measurement": "percentage of responders out of carriers of genotype", "setting": "RR-MS patients [1]; [6]", "value": "(35.29%)"}, {"measurement": "responders/carriers of genotype", "setting": "RR-MS patients [1]; [6]", "value": "12/34"}, {"measurement": "percentage of responders out of carriers of genotype", "setting": "RR-MS patients [1]; [7]", "value": 85.71, "unit": "%"}, {"measurement": "responders/carriers of genotype", "setting": "RR-MS patients [1]; [7]", "value": "6/7"}, {"measurement": "responders/carriers of genotype", "setting": "RR-MS patients [1]; CD80_rs527004, GEN = 2, GA(N = 41)", "value": "0/0"}, {"measurement": "percentage of responders out of carriers of genotype", "setting": "RR-MS patients [1]; [8]", "value": "(16.67%)"}, {"measurement": "responders/carriers of genotype", "setting": "RR-MS patients [1]; [8]", "value": "3/18"}, {"measurement": "percentage of responders out of carriers of genotype", "setting": "RR-MS patients [1]; [9]", "value": "(60%)"}, {"measurement": "responders/carriers of genotype", "setting": "RR-MS patients [1]; [9]", "value": "9/15"}, {"measurement": "percentage of responders out of carriers of genotype", "setting": "RR-MS patients [1]; [10]", "value": "(50%)"}, {"measurement": "responders/carriers of genotype", "setting": "RR-MS patients [1]; [10]", "value": "1/2"}, {"measurement": "percentage of responders out of carriers of genotype", "setting": "RR-MS patients [1]; [11]", "value": "(28.21%)"}, {"measurement": "responders/carriers of genotype", "setting": "RR-MS patients [1]; [11]", "value": "11/39"}, {"measurement": "percentage of responders out of carriers of genotype", "setting": "RR-MS patients [1]; [12]", "value": 62.5, "unit": "%)"}, {"measurement": "responders/carriers of genotype", "setting": "RR-MS patients [1]; [12]", "value": "5/8"}, {"measurement": "percentage of responders out of carriers of genotype", "setting": "RR-MS patients [1]; [13]", "value": "(100%)"}, {"measurement": "responders/carriers of genotype", "setting": "RR-MS patients [1]; [13]", "value": "1/1"}, {"measurement": "percentage of responders out of carriers of genotype", "setting": "RR-MS patients [1]; [14]", "value": "(22.53%)"}, {"measurement": "responders/carriers of genotype", "setting": "RR-MS patients [1]; [14]", "value": "5/24"}, {"measurement": "percentage of responders out of carriers of genotype", "setting": "RR-MS patients [1]; [15]", "value": "(31.25%)"}, {"measurement": "responders/carriers of genotype", "setting": "RR-MS patients [1]; [15]", "value": "5/16"}, {"measurement": "percentage of responders out of carriers of genotype", "setting": "RR-MS patients [1]; CD95_rs9827641, GEN = 2, GA(N-47)", "value": "((71.43%)^"}, {"measurement": "percentage of responders out of carriers of genotype", "setting": "RR-MS patients [1]; [16]", "value": "(15%)"}, {"measurement": "responders/carriers of genotype", "setting": "RR-MS patients [1]; [16]", "value": "3/20"}, {"measurement": "percentage of responders out of carriers of genotype", "setting": "RR-MS patients [1]; [17]", "value": "(42.86%)"}, {"measurement": "responders/carriers of genotype", "setting": "RR-MS patients [1]; [17]", "value": "9/21"}, {"measurement": "percentage of responders out of carriers of genotype", "setting": "RR-MS patients [1]; [18]", "value": "(83.33%)"}, {"measurement": "responders/carriers of genotype", "setting": "RR-MS patients [1]; [18]", "value": "5/6"}, {"measurement": "percentage of responders out of carriers of genotype", "setting": "RR-MS patients [1]; [19]", "value": "(19.35%)"}, {"measurement": "responders/carriers of genotype", "setting": "RR-MS patients [1]; [19]", "value": "6/31"}, {"measurement": "percentage of responders out of carriers of genotype", "setting": "RR-MS patients [1]; [20]", "value": "(66.67%)"}, {"measurement": "responders/carriers of genotype", "setting": "RR-MS patients [1]; [20]", "value": "4/6"}, {"measurement": "percentage of responders out of carriers of genotype", "setting": "RR-MS patients [1]; [21]", "value": "(83.33%)"}, {"measurement": "responders/carriers of genotype", "setting": "RR-MS patients [1]; [21]", "value": "5/6"}, {"measurement": "percentage of responders out of carriers of genotype", "setting": "RR-MS patients [1]; [22]", "value": "(18.18%)"}, {"measurement": "responders/carriers of genotype", "setting": "RR-MS patients [1]; [22]", "value": "2/11"}, {"measurement": "percentage of responders out of carriers of genotype", "setting": "RR-MS patients [1]; [23]", "value": "(43.75%)"}, {"measurement": "responders/carriers of genotype", "setting": "RR-MS patients [1]; [23]", "value": "7/16"}, {"measurement": "percentage of responders out of carriers of genotype", "setting": "RR-MS patients [1]; [24]", "value": "(100%)"}, {"measurement": "responders/carriers of genotype", "setting": "RR-MS patients [1]; [24]", "value": "5/5"}, {"measurement": "percentage of responders out of carriers of genotype", "setting": "RR-MS patients [2]; [25]", "value": 62.07, "unit": "%"}, {"measurement": "responders/carriers of genotype", "setting": "RR-MS patients [2]; [25]", "value": "18/29"}, {"measurement": "percentage of responders out of carriers of genotype", "setting": "RR-MS patients [2]; [26]", "value": "(90%)"}, {"measurement": "responders/carriers of genotype", "setting": "RR-MS patients [2]; [26]", "value": "9/10"}, {"measurement": "percentage of responders out of carriers of genotype", "setting": "RR-MS patients [2]; [27]", "value": "(100%)"}, {"measurement": "responders/carriers of genotype", "setting": "RR-MS patients [2]; [27]", "value": "4/4"}, {"measurement": "binding to MHC class II molecules", "setting": "[3]", "value": "very rapid, high, and efficient binding"}, {"measurement": "macroscopic colonic damage", "setting": "[4]", "value": "reduce macroscopic colonic damage"}, {"measurement": "amelioration of graft rejection", "setting": "[5]", "value": "prolongation of skin graft survival and inhibition of functional deterioration of thyroid grafts"}]}
